Our source for the IC50 and Ki values is ChEMBL document CHEMBL1909046, “DrugMatrix in vitro pharmacology data”.

Series [1] in a line: DRUGMATRIX: GABAA, Muscimol, Central radioligand binding (ligand: [3H] Muscimol). In kind it is cell membranes, Rattus norvegicus, Wistar, Brain, Membrane. The following applies: Not Active = under 50% inhibition at 10 µM.
Series [2] can be described thus: DRUGMATRIX: Glutamate, NMDA, Agonism radioligand binding (ligand: [3H] CGP-39653). Format: cell membranes, Rattus norvegicus, Wistar, Cerebral cortex, Membrane. The following applies: Not Active = under 50% inhibition at 10 µM.
The target in series [3] is T1, Vasoactive intestinal polypeptide receptor 1 (Homo sapiens, UniProt P32241). Further: in other assays of this panel Not Active means under 50% inhibition at 10 µM.
T1 sequence (P32241 whole entry): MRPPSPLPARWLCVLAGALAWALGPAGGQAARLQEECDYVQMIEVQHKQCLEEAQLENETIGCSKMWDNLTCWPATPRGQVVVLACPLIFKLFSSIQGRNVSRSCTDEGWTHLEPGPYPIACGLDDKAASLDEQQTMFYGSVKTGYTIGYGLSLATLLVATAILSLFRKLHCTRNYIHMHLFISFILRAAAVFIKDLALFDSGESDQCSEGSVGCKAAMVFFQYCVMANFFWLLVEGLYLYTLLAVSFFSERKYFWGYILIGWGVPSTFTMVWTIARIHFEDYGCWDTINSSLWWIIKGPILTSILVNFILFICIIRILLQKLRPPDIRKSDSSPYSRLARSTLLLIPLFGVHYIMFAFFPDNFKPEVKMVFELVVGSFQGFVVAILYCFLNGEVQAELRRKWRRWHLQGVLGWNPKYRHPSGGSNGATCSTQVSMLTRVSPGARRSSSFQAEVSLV
In kind it is cell membranes, Membrane. The following applies: ht-29.

Another series addresses Carbonic anhydrase 2 (Homo sapiens, UniProt P00918). Put plainly: DRUGMATRIX: Carbonic Anhydrase II enzyme inhibition (substrate: 4-Nitrophenyl acetate (4-NPA)). Format: tissue-based, Erythrocyte. Conditions: erythrocyte; Not Active = under 50% inhibition at 10 µM.
The nature of series [4]: DRUGMATRIX: Sigma2 radioligand binding (ligand: [3H] Ifenprodil). Format: cell membranes, Rattus norvegicus, Wistar, Brain, Membrane. Conditions: Not Active = under 50% inhibition at 10 µM.
The target in a further series is Nitric oxide synthase 1 (Rattus norvegicus, UniProt P29476). In kind it is tissue-based, Cerebellum. Further: in other assays of this panel Not Active means under 50% inhibition at 10 µM.
Another series has as its target Cytochrome P450 2D6 (Homo sapiens, UniProt P10635). Conditions: bti-tn-5b1-4. Further: in other assays of this panel Not Active means under 50% inhibition at 10 µM.

Chain of Cytochrome P450 2D6 (P10635 whole entry): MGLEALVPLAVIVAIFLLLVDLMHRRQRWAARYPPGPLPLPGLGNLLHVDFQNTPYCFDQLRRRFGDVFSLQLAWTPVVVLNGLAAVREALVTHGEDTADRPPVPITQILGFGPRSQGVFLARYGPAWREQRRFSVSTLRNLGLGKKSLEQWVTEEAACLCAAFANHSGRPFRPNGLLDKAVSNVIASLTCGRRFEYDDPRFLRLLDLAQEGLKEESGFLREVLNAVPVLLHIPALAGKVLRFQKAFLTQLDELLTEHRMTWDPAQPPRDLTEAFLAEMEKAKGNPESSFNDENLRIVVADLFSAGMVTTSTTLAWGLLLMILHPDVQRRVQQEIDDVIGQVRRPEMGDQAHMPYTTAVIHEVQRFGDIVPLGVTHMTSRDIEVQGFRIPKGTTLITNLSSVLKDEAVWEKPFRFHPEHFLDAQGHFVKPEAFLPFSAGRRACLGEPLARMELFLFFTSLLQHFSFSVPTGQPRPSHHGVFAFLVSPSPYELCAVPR
Chain of Nitric oxide synthase 1 (P29476 whole entry): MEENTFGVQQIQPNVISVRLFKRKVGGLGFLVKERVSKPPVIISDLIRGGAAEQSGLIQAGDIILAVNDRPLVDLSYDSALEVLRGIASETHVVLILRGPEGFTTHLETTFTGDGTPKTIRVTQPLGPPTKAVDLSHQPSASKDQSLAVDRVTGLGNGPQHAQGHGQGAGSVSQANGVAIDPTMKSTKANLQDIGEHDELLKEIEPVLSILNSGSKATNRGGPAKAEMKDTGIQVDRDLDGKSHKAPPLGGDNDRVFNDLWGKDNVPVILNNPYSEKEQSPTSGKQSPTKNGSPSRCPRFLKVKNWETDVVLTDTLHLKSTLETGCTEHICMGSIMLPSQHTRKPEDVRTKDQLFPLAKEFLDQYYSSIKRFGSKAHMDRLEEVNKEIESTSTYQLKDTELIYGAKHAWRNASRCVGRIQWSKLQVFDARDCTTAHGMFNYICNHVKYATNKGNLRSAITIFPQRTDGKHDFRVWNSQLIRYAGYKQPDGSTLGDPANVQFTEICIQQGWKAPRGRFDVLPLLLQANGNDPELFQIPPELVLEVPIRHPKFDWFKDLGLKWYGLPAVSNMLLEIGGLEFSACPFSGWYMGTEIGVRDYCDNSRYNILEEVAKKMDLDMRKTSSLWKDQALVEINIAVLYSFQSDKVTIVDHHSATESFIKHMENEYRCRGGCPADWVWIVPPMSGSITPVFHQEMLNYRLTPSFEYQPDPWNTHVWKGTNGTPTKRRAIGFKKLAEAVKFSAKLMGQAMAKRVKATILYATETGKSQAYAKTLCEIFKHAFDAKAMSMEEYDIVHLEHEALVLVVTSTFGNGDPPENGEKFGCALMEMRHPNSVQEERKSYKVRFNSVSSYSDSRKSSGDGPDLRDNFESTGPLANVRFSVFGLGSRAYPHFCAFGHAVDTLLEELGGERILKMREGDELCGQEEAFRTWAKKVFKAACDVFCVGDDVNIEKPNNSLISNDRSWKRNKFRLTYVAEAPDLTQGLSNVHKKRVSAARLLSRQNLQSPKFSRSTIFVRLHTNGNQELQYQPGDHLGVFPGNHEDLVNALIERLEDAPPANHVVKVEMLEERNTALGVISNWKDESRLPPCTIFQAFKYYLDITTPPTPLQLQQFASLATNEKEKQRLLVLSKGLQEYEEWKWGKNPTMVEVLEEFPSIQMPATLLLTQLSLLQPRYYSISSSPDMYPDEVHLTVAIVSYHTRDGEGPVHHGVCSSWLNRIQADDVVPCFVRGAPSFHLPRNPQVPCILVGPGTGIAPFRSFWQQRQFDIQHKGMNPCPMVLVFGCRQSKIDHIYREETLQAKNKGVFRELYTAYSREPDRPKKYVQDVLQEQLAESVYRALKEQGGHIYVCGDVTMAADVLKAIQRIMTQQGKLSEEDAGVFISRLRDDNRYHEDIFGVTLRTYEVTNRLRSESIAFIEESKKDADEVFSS

As usually defined, the IC50 is the point on the concentration scale where inhibition reaches its midpoint. Broadly, the Ki is the dissociation constant of the complex between target and ligand, obtained from inhibition or displacement. For the compound `CC1(C)O[C@@H]2C[C@H]3[C@@H]4CCC5=CC(=O)C=C[C@]5(C)[C@@]4(F)[C@@H](O)C[C@]3(C)[C@]2(C(=O)CO)O1` [TRIAMCINOLONE ACETONIDE], the IC50 entry (in series [1]; in series [2]; in series [3]; against Carbonic anhydrase 2; in series [4]; on Nitric oxide synthase 1) was “Not Active” in each case. Also, the IC50 result on Cytochrome P450 2D6 is on record as “Not Active”. Further, the Ki result (in series [1]; in series [2]; in series [4]; on Cytochrome P450 2D6) was “Not Active” in each case.
Consider `NC[C@H]1CC[C@H](C(=O)O)CC1` [TRANEXAMIC ACID], for which the IC50 entry (in series [1]; in series [2]; in series [3]; against Carbonic anhydrase 2; in series [4]; on Nitric oxide synthase 1) was “Not Active” in each case. Moreover, the IC50 entry on Cytochrome P450 2D6 was “Not Active”. The inhibition constant Ki result (in series [1]; in series [2]; in series [4]; on Cytochrome P450 2D6) was “Not Active” in each case.
For `COc1c(C)c2c(c(O)c1C/C=C(\C)CCC(=O)O)C(=O)OC2` [MYCOPHENOLIC ACID], the IC50 result (in series [1]; in series [2]; in series [3]; on Carbonic anhydrase 2; in series [4]; against Nitric oxide synthase 1) was “Not Active” each time. Besides, the IC50 result against Cytochrome P450 2D6 is “Not Active”. Further, the Ki result (in series [1]; in series [2]; in series [4]; at Cytochrome P450 2D6) was “Not Active” in each case.
In the case of `N[C@@H](Cc1ccc(N(CCCl)CCCl)cc1)C(=O)O`, the IC50 result (in series [1]; in series [2]; in series [3]; against Carbonic anhydrase 2; in series [4]; on Nitric oxide synthase 1) was “Not Active” in each case. In addition, at Cytochrome P450 2D6, the IC50 result is recorded as “Not Active”. For the same compound, the Ki entry (in series [1]; in series [2]; in series [4]; on Cytochrome P450 2D6) was “Not Active” each time.
On to `CO[C@H]1/C=C/O[C@@]2(C)Oc3c(C)c(O)c4c(O)c(c(/C=N/N5CCN(C)CC5)c(O)c4c3C2=O)NC(=O)/C(C)=C\C=C\[C@H](C)[C@H](O)[C@@H](C)[C@@H](O)[C@@H](C)[C@H](OC(C)=O)[C@@H]1C` [RIFAMPIN], for which the IC50 entry (in series [1]; in series [2]; in series [3]; at Carbonic anhydrase 2; in series [4]; at Nitric oxide synthase 1) was “Not Active” throughout. Also, at Cytochrome P450 2D6, the IC50 entry is listed as “Not Active”. For the same compound, the Ki entry (in series [1]; in series [2]; in series [4]; on Cytochrome P450 2D6) was “Not Active” in each case.
As to `O=NN(CCCl)C(=O)NC1CCCCC1` [LOMUSTINE], the IC50 result (in series [1]; in series [2]; in series [3]; on Carbonic anhydrase 2; in series [4]; against Nitric oxide synthase 1) was “Not Active” each time. Further, the IC50 entry against Cytochrome P450 2D6 is “Not Active”. The inhibition constant (Ki) entry (in series [1]; in series [2]; in series [4]; at Cytochrome P450 2D6) was “Not Active” throughout.
Regarding `CSc1ccc(/C=C2/C(C)=C(CC(=O)O)c3cc(F)ccc32)cc1` [SULINDAC SULFIDE], the IC50 entry (in series [1]; in series [2]; in series [3]; on Carbonic anhydrase 2; in series [4]; against Nitric oxide synthase 1) was “Not Active” throughout. In addition, the IC50 entry on Cytochrome P450 2D6 is recorded as “Not Active”. The Ki entry (in series [1]; in series [2]; in series [4]; at Cytochrome P450 2D6) was “Not Active” each time.
SODIUM NITROPRUSSIDE: the IC50 result (in series [1]; in series [2]; in series [3]; against Carbonic anhydrase 2; in series [4]; against Nitric oxide synthase 1) was “Not Active” throughout. The IC50 result against Cytochrome P450 2D6 is listed as “Not Active”. Further, the Ki result (in series [1]; in series [2]; in series [3]; at Carbonic anhydrase 2; in series [4]; at Nitric oxide synthase 1) was “Not Active” throughout. Also, the Ki result on Cytochrome P450 2D6 was “Not Active”.
Consider `Cc1noc(NS(=O)(=O)c2ccc(N)cc2)c1C` [SULFISOXAZOLE], for which the IC50 result (in series [1]; in series [2]; in series [3]; at Carbonic anhydrase 2; in series [4]; against Nitric oxide synthase 1) was “Not Active” in each case. For the same compound, the IC50 entry on Cytochrome P450 2D6 is on record as “Not Active”. For the same compound, the Ki result (in series [1]; in series [2]; in series [4]; at Cytochrome P450 2D6) was “Not Active” in each case.
Turning to `Cc1cccc(N(C)C(=S)Oc2ccc3ccccc3c2)c1` [TOLNAFTATE], the IC50 result (in series [1]; in series [2]; in series [3]; against Carbonic anhydrase 2; in series [4]; against Nitric oxide synthase 1) was “Not Active” each time. Further, the IC50 entry at Cytochrome P450 2D6 is on record as “Not Active”. The Ki result (in series [1]; in series [2]; in series [4]; on Cytochrome P450 2D6) was “Not Active” throughout.
Take `Cc1oncc1C(=O)Nc1ccc(C(F)(F)F)cc1` [LEFLUNOMIDE]: the IC50 result (in series [1]; in series [2]; in series [3]; at Carbonic anhydrase 2; in series [4]; against Nitric oxide synthase 1) was “Not Active” throughout. Also, the IC50 result on Cytochrome P450 2D6 was “Not Active”. For the same compound, the Ki entry (in series [1]; in series [2]; in series [4]; on Cytochrome P450 2D6) was “Not Active” in each case.
For `CC(C)(C)NC(=O)[C@@H]1C[C@@H]2CCCC[C@@H]2CN1C[C@@H](O)[C@H](Cc1ccccc1)NC(=O)[C@H](CC(N)=O)NC(=O)c1ccc2ccccc2n1`, the IC50 entry (in series [1]; in series [2]; in series [3]; at Carbonic anhydrase 2; in series [4]; against Nitric oxide synthase 1) was “Not Active” throughout. In addition, the IC50 result at Cytochrome P450 2D6 is recorded as “Not Active”. For the same compound, the Ki result (in series [1]; in series [2]; in series [4]; on Cytochrome P450 2D6) was “Not Active” in each case.
Turning to `CC(=O)[C@@]1(O)CC[C@H]2[C@@H]3C[C@H](C)C4=CC(=O)CC[C@]4(C)[C@H]3CC[C@@]21C`, the IC50 entry (in series [1]; in series [2]; in series [3]; at Carbonic anhydrase 2; in series [4]; on Nitric oxide synthase 1) was “Not Active” each time. Further, the IC50 entry on Cytochrome P450 2D6 is reported as “Not Active”. For the same compound, the Ki entry (in series [1]; in series [2]; in series [4]; on Cytochrome P450 2D6) was “Not Active” each time.
With `CC(C)N1CCN(c2ccc(OCC3COC(Cn4cncn4)(c4ccc(Cl)cc4Cl)O3)cc2)CC1` (stereo not given) [TERCONAZOLE], the IC50 entry was “Not Active” in series [1]; “Not Active” in series [2]; “Not Active” in series [3]; “Not Active” on Carbonic anhydrase 2; 317 nM in series [4] (read-out: IC50); “Not Active” at Nitric oxide synthase 1. On Cytochrome P450 2D6, the IC50 entry was “Not Active”. In addition, the Ki entry in series [1] is “Not Active”; in series [2], “Not Active”; in series [4] (read-out: Ki), 195 nM; on Cytochrome P450 2D6, “Not Active”.
With `Nc1nc2nc[nH]c2c(=S)[nH]1` [THIOGUANINE], the IC50 entry (in series [1]; in series [2]; in series [3]; on Carbonic anhydrase 2; in series [4]; at Nitric oxide synthase 1) was “Not Active” each time. Moreover, the IC50 result against Cytochrome P450 2D6 is “Not Active”. Also, the Ki entry (in series [1]; in series [2]; in series [4]; on Cytochrome P450 2D6) was “Not Active” throughout.
Take `COc1nc(C)nc(Cl)c1NC1=NCCN1` [MOXONIDINE]: the IC50 result (in series [1]; in series [2]; in series [3]; against Carbonic anhydrase 2; in series [4]; on Nitric oxide synthase 1) was “Not Active” in each case. Further, the IC50 result on Cytochrome P450 2D6 was “Not Active”. Further, the Ki result (in series [1]; in series [2]; in series [4]; at Cytochrome P450 2D6) was “Not Active” each time.
Consider `C[C@@H]1CN(c2c(F)c(N)c3c(=O)c(C(=O)O)cn(C4CC4)c3c2F)C[C@H](C)N1` [SPARFLOXACIN], for which the IC50 entry (in series [1]; in series [2]; in series [3]; against Carbonic anhydrase 2; in series [4]; at Nitric oxide synthase 1) was “Not Active” throughout. In addition, at Cytochrome P450 2D6, the IC50 result is recorded as “Not Active”. In addition, the Ki result (in series [1]; in series [2]; in series [4]; at Cytochrome P450 2D6) was “Not Active” in each case.
